Read-outs that look alike come from different tables or passages of the source.
Columns and labels:
[1] = Phase 1 clinical trial, SRA737 in combination with gemcitabine dose escalation; format: in vivo, human; conditions: for AUC(0-t) / Cmax / Tmax / half-life: human, plasma, oral, mean
Procedure: A Phase 1 clinical trial was conducted in ‘all corners,’ i.e. no genetic selection was performed, to establish safety, tolerability and pharmacokinetics for SRA737 administered in combination with gemcitabine (“Dose Escalation Phase”). Cohorts consisting initially of a single subject received escalating doses of SRA737, starting in Cohort 1 with 40 mg/day administered orally on days 2, 3, 9, 10, 16, and 17 of each 28-day cycle. Cohorts also received various doses of gemcitabine, starting in Cohort 1 with 300 mg/m^2/day administered IV over 30 minutes on days 1, 8, and 15 of each 28-day cycle.
FIG. 3 presents a summary of dosing amounts for the cohorts tested. In the Dose Escalation Phase, a total of 55 subjects received SRA737 in 13 dose escalation cohorts at doses of 40 to 600 mg SRA737 combined with LDG doses of 50 to 300 mg/m^2.
At this dose, the Cmin (52 ng/mL) exceeded that determined in preclinical models to be effective.
Additional cohorts are monitored escalating the dose of SRA737 until the maximum tolerated dose (MTD) is identified and to optimize combination dosing with gemcitabine. All enrolled subjects who receive at least 1 dose of SRA737 and provide at least 1 evaluable PK concentration or have evaluable data for each specific PDn assessment are evaluable for PK and PDn, respectively. Serious adverse events (SAEs) are collected starting on the date of informed consent. Radiological assessment are performed within 4 weeks from the first dose of SRA737 (or gemcitabine if the SRA737 dose for PK is omitted) and repeated every 6 weeks in Stage 1. In Stage 2, assessments are performed every 8 weeks and in long-term follow-up every 16 weeks. Assessments are performed more frequently, when clinically indicated. Cardiac assessments (echocardiogram [ECHO] and electrocardiogram [ECG]) are be conducted. Optional triplet tumor biopsies in some cases are collected within 28 days prior to receiving the first SRA737 dose. Within 7 days of the first dose of SRA737 (or gemcitabine if the SRA737 dose for PK is omitted), the following assessments are completed: complete physical examination, clinical disease assessment, SAE and concomitant medication, WHO performance status and local laboratory assessment of blood (for hematology, biochemistry, and pregnancy testing). At the single-dose PK run-in on Day −7 to Day −4 visit, concomitant medication, vital signs (including temperature, blood pressure, and pulse), height, weight, body surface area (BSA), and WHO performance status are collected. Blood samples are obtained predose for hematology, biochemistry, pregnancy testing, troponin I or T, as well as for tumor markers and tumor profiling. Adverse events (AEs) are collected starting at the administration of SRA737. Archival tissue is submitted for tumor profiling. PK samples are collected at up to 10 time points over a 48-hour time period on Day −7 to −4 (first dose of SRA737 for PK). The sponsor in some cases reduces the requirement for PK sampling, including modification or elimination of the Day −7 to Day −4 visit once sufficient data to evaluate the single-dose PK of SRA737 have been collected and analyzed. […]

[2] = Plasma protein binding, ultracentrifugation, monkey; format: in vitro ADME; conditions: for Percentage Bound / Percentage Free: Monkey plasma
Procedure: The PK of SRA737 have been determined in the mouse, rat, dog and monkey following oral and IV administration (Table 3). […] An acceptable terminal elimination t1/2 was also observed in each species. […] The plasma protein binding of SRA737 at 1 and 10 μM was examined in mouse, minipig, monkey and human plasma using ultracentrifugation and in dog plasma (10 μM) using rapid equilibrium dialysis.

[3] = test system: HGSOC PDX models harboring CCNE1 amplifications accompanied by TP53 mutations; assay: In vivo efficacy, HGSOC PDX models with CCNE1 amplifications; parameters: species or system mouse; conditions: single agent; several models; data not shown
Procedure: A program of in vivo efficacy studies was performed to assess the activity of SRA737 in combination with genotoxic chemotherapy and targeted agents, and as monotherapy.
One of these models also carried a MYCN amplification. A fourth HGSOC PDX model with partial resistance to PARPi was also sensitive to high dose SRA737 monotherapy.

[4] = Excretion in urine and feces, mice; format: in vivo, mouse; conditions: 24-hour collection
Procedure: The excretion of SRA737 has been studied in mice and rats administered SRA737 at either 5 mg/kg IV or 10 mg/kg orally. Urine and feces were collected for a 24-hour period after dosing. In mice, renal excretion of intact SRA737 was consistently low (less than 10% of dose) after both oral and IV administration. Following IV administration of SRA737, less than 8% of the dose was recovered as intact drug in the feces while after oral administration this figure was less than 3%. Excretion of intact SRA737 was lower in the rat than in the mouse with <1% of dose excreted renally over 24 hours and less than 1.5% of dose excreted into the feces over 24 hours.

## N#Cc1cnc(Nc2cc(NCC3CNCCO3)c(C(F)(F)F)cn2)cn1 (stereo not shown) [SRA737, 5-[[4-[[morpholin-2-yl]methylamino]-5-(trifluoromethyl)-2-pyridyl]amino]pyrazine-2-carbonitrile]
[1]; 150 mg SRA737
  Cmin: 52 ng/mL
[1]; 40 to 600 mg SRA737 combined with gemcitabine 50 to 300 mg/m^2
  dose limiting toxicities (DLTs): No protocol-defined dose limiting toxicities
[1]; 20 mg, Day −7, n = 8-10, read-out: AUC0-12
  AUC(0-t): 145 ng·h/mL
[1]; 40 mg, Day 10, n = 4
  Cmax: 117 ng/mL
  Tmax: 1.8 h
[1]; 40 mg, Day 10, n = 4, read-out: AUC0-12
  AUC(0-t): 543 ng·h/mL
[1]; 40 mg, Day −7, n = 6
  Cmax: 106 ng/mL
  Tmax: 2 h
  half-life: 11.6 h
[1]; 40 mg, Day −7, n = 6, read-out: AUC0-12
  AUC(0-t): 486 ng·h/mL
[1]; 40 mg, Day −7, n = 6, read-out: AUC0-24
  AUC(0-t): 637 ng·h/mL
[1]; 80 mg, Day 10, n = 3
  Cmax: 113 ng/mL
  Tmax: 2 h
[1]; 80 mg, Day 10, n = 3, read-out: AUC0-12
  AUC(0-t): 570 ng·h/mL
[1]; 80 mg, Day −7, n = 3
  Cmax: 146 ng/mL
  Tmax: 2 h
  half-life: 11.3 h
[1]; 80 mg, Day −7, n = 3, read-out: AUC0-12
  AUC(0-t): 641 ng·h/mL
[1]; 80 mg, Day −7, n = 3, read-out: AUC0-24
  AUC(0-t): 825 ng·h/mL
[1]; 150 mg, Day 10, n = 3
  Cmax: 331 ng/mL
  Tmax: 1.5 h
[1]; 150 mg, Day 10, n = 3, read-out: AUC0-12
  AUC(0-t): 1680 ng·h/mL
[1]; 150 mg, Day −7, n = 4
  Cmax: 548 ng/mL
  Tmax: 1.8 h
  half-life: 12.7 h
[1]; 150 mg, Day −7, n = 4, read-out: AUC0-12
  AUC(0-t): 2630 ng·h/mL
[1]; 150 mg, Day −7, n = 4, read-out: AUC0-24
  AUC(0-t): 3550 ng·h/mL
[1]; 300 mg, Day 10, n = 7
  Cmax: 1080 ng/mL
  Tmax: 1.7 h
[1]; 300 mg, Day 10, n = 7, read-out: AUC0-12
  AUC(0-t): 5140 ng·h/mL
[1]; 300 mg, Day −7, n = 7
  Cmax: 995 ng/mL
  Tmax: 2.4 h
  half-life: 11.8 h
[1]; 300 mg, Day −7, n = 7, read-out: AUC0-12
  AUC(0-t): 4530 ng·h/mL
[1]; 300 mg, Day −7, n = 7, read-out: AUC0-24
  AUC(0-t): 5910 ng·h/mL
[1]; 500 mg, Day 10, n = 19-22
  Cmax: 1720 ng/mL
  Tmax: 2.4 h
[1]; 500 mg, Day 10, n = 19-22, read-out: AUC0-12
  AUC(0-t): 10200 ng·h/mL
[1]; 500 mg, Day −7, n = 29
  Cmax: 1430 ng/mL
  Tmax: 2.4 h
  half-life: 11.8 h
[1]; 500 mg, Day −7, n = 29, read-out: AUC0-12
  AUC(0-t): 8320 ng·h/mL
[1]; 500 mg, Day −7, n = 29, read-out: AUC0-24
  AUC(0-t): 11400 ng·h/mL
[1]; 600 mg, Day 10, n = 4
  Cmax: 2110 ng/mL
  Tmax: 2.5 h
[1]; 600 mg, Day 10, n = 4, read-out: AUC0-12
  AUC(0-t): 11900 ng·h/mL
[1]; 600 mg, Day −7, n = 4
  Cmax: 2210 ng/mL
  Tmax: 1.8 h
  half-life: 11.1 h
[1]; 600 mg, Day −7, n = 4, read-out: AUC0-12
  AUC(0-t): 11800 ng·h/mL
[1]; 600 mg, Day −7, n = 4, read-out: AUC0-24
  AUC(0-t): 15100 ng·h/mL
[1]; 20 mg, Day −7, n = 8-10
  half-life: 4.09 h
[2]; 1 μM
  Percentage Bound: 88.8%
  Percentage Free: 11.2%
[2]; 10 μM
  Percentage Bound: 85.8%
  Percentage Free: 14.2%
[2]; plasma, monkey, summary of 1 and 10 μM
  fraction unbound: 0.13
[3]
  antitumor activity: Significant antitumor activity
[4]; IV 5 mg/kg
  dose recovered as intact drug in the feces: less than 8 % of the dose
[4]; after both oral (10 mg/kg) and IV (5 mg/kg)
  renal excretion of intact SRA737: less than 10 % of dose
[4]; oral 10 mg/kg
  dose recovered as intact drug in the feces: less than 3 % of the dose

Reference: patent US20200397796A1, “METHODS OF TREATMENT OF CANCER COMPRISING CHK1 INHIBITORS” (SIERRA ONCOLOGY, INC., priority 2018, published 2020)
